Drawing on patent US20230338574A1, “ANTIBODY-NANOPARTICLE COMPLEXES AND METHODS FOR MAKING AND USING THE SAME” (priority 2020, published 2023), this text covers median survival, binding result and antibody concentration for 4 molecules.

Test [1] deals with MDA-MB-231 tumor xenograft. The test can be described thus: In vivo efficacy in MDA-MB-231 tumor xenograft. Also noted: species or system female athymic nude mice. Conditions: Kaplan Meier. The procedure: Female athymic nude mice, 6 weeks of age, were purchased from Envigo Corporation.
Human breast cancer cell lines MDA-MB-231 were purchased from ATCC and were cultured and expanded in DMEM medium supplemented with 10% FBS, 100 units/ml of penicillin and 100 μg/ml of streptomycin at 37° C. in a 5% CO2 humidified environment for a period of 2-3 weeks before harvesting for implantation. Cell viability determined by Trypan blue dye exclusion assay was >90% before implantation. 4 million MDA-MB-231 cells in 100 μl of PBS were inoculated to the right upper flank of each mouse by s.c. injection.
Tumor volume measurement was started at day 25 after tumor cell inoculation and performed twice weekly. The longest longitudinal diameter as length and the widest transverse diameter as width were measured by using a digital caliper. Tumor volume (TV) was then calculated by the formula: TV=[length×(width)^2]/2 and were analyzed in Excel.
The treatment was started when average tumor size reached ˜400 mm^3.
Mice were euthanized when tumor size reached 2000 mm^3.
After tumor-bearing mice were randomized, 0.9% saline, anti-PDL1, Irinotecan 15, albumin bound non-toxic paclitaxel (NTP), free SN-38 at 7.5 and 15 mg/kg (SN38 7.5 and 15), albumin bound SN-38 at 7.5 and 15 mg/kg (Nab 7.5 and 15), anti-PDL1 plus SN38 Nab delivered at the same time in separate injections (PDL1+Nab15), or anti-PDL1 coated albumin bound SN-38 at 7.5 and 15 mg/kg (NIC 7.5 and NIC 15) were administered. Albumin bound SN-38 (Nab) and anti-PDL1 coated SN-38 Nab (NIC) were made as described above. Drugs were diluted in 0.9% saline and administered to the athymic nude mice in 100 μl by IV injections in the tail vein. SN-38 in all forms was given at 7.5 and 15 mg/kg in a single dose.
Raw data of tumor measurements (FIG. 7A-FIG. 7K) were analyzed in Excel. Tumor growth curves, day 7 tumor response and Kaplan-Meier survival curves were plotted using GraphPad Prism 8.0 software. Data from day 7 tumor response were compared using student's t-test. P values of less than 0.05 were considered significant (FIG. 8).
In MDA-MB-231 tumor xenograft model tumor responses were determined at day 7 using the equation: {([…])/tumor size day 0}*100. Differences in tumor response were determined by student's t-test in GraphPad Prism software 8.0. Percent change above the zero line indicates tumor growth, and below the zero line indicates tumor shrinking. […]
Kaplan Meier curves for the MDA-MB-231 xenotransplant model were generated in GraphPad Prism software 8.0 and median survival was determined to be 28, 34, 30, 24.5, 30, and 42.5 for the saline, anti-PDL1, Irinotecan 15, NTP, free SN38 7.5, and free SN38 15, respectively. […]

Test [2] has as its target T1, SN38:NTP Nab (albumin nanoparticles made with non-toxic paclitaxel derivative and SN38) (human, UniProt P02768 25-609).
T1 construct: also called SN38 Nab
The test is described as follows: zeta potential (Zetasizer), SN38:NTP:STI3031 NIC against SN38:NTP Nab.

Test [3] concerns the target nab-paclitaxel (Taxol) nanoparticles with SN38 (human) (UniProt P02768). The test is described as follows: zeta potential (Zetasizer), nanoparticles with 2, 4, 6 or 8 mg/ml antibody.

As to `CCc1c2c(nc3ccc(OC(=O)N4CCC(N5CCCCC5)CC4)cc13)-c1cc3c(c(=O)n1C2)COC(=O)[C@]3(O)CC` [Irinotecan, irinotecan], the median survival in test [1] (15 mg/kg, IV) is on record as 30.
On to `CCc1c2c(nc3ccc(O)cc13)-c1cc3c(c(=O)n1C2)COC(=O)[C@]3(O)CC` [SN38], for which the median survival in test [1] (7.5 mg/kg, single IV dose) came to 30; in test [1] (15 mg/kg, IV) it was 42.5.
The molecule “anti-PDL1: anti-PDL1 H6B1L-EM antibody (STI3031), HC/LC SEQ ID NO. 1/SEQ ID NO. 2” had a median survival in test [1] (IV injection, dose not given) of 34.

B1: anti-PDL1 H6B1L-EM antibody (STI3031) (antibody, human IgG1, lambda, V domains shown)
VH: QMQLVQSGAEVKKPGSSVKVSCKASGGTFSSYAYSWVRQAPGQGLEWMGGIIPSFGTANYAQKFQGRVTITADESTSTAYMELSSLRSEDTAVYYCARGPIVATITPLDYWGQGTLVTVSS
VL: SYVLTQPPSVSVAPGKTATIACGGENIGRKTVHWYQQKPGQAPVLVIYYDSDRPSGIPERFSGSNSGNTATLTISRVEAGDEADYYCLVWDSSSDHRIFGGGTKLTVLG
notes: also called PDL1 antibody
For B1, the binding result in test [2] is “binds”. Moreover, in test [3], the antibody concentration at which zeta potential reaches its maximum was found to be 4 mg/mL.
